Measured values from patent US20050123536A1, “Treatment of immunological disorders using anti-dc30 antibodies” (priority 2001, published 2005).
Several values for one entry are separate records, joined by “and”; a condition that tells them apart may be missing. Identical values can stand only once. Entries after “also recorded” stand apart in the source; their conditions may differ.

Key:
[1] = test system: Jurkat T cells; assay: Apoptosis by Annexin V binding and permeability to PI; format: cell-based, human; details: primary mAb 2 μg/ml, 10-fold excess GAM
Protocol: FIG. 7. […] Anti-CD30 and anti-CD3 mAbs were used at 2 μg/ml. GAM secondary Ab was used in 10-fold excess to cross-link the primary mAbs. Binding of FITC-conjugated Annexin V enabled the detection of cells undergoing apoptosis. Membrane permeability to PI was used to detect dead cells that had lost membrane integrity. In the figure, Annexin V^−/PI^− events represent live cells (lower left quadrant), Annexin V^+/PI^− events represent apoptotic cells (lower right quadrant), and Annexin V^+/PI^+ events represent dead cells (upper right quadrant). Numbers outside of the density plots denote the percentage of cells present in each of the quadrants.
Primary mAbs were used at a final concentration of 2 μg/ml. A 10-fold excess of GA-M antibody was used to cross-link the primary antibodies. After an incubation of 15 minutes at room temperature, antibody cocktails were added to Jurkat cells. At the times designated in FIG. 7, percentages of apoptotic and dead cells in the cultures were determined by Annexin V binding and permeability to PI using the Annexin V-FITC Apoptosis Detection Kit I (BD PharMingen, San Diego, Calif.) according to the manufacturer's instruction. […]

[2] = test system: Jurkat T cells; assay: Cell cycle disposition, DNA synthesis and DNA fragmentation (apoptosis) by PI and anti-BrdU staining; format: cell-based, human; details: for DNA fragmentation in Jurkat cells: mAb cross-linked by goat anti-mouse IgG Fc, after 24 and 48 hours
Protocol: The relationship between cell cycle status and DNA replication in Jurkat cells treated with cross-linked anti-CD30 in Abs was further investigated. […] The antibody cocktails were allowed to incubate at room temperature for 15 minutes. Serial 1:10 dilutions of these antibody cocktails in culture medium were then prepared. One ml of antibody cocktails was then mixed with 1 ml of Jurkat cell suspension containing 0.25×10^6 cells in 12-well TC plates.
After 24 or 48 hours of incubation, cells were harvested by centrifugation and resuspended in 2 ml of fresh medium equilibrated at 37° C. Bromodeoxyuridine (BrdU) (Sigma, St. Louis, Mo.) was used to label cells that were actively synthesizing DNA. Twenty μl of 1 mM BrdU dissolved in water were added to the cell suspension, and the incubation continued at 37° C. for 15 minutes. Cells were then spun down, washed once with PBS, and resuspended in 0.5 ml of ice-cold PBS. One ml of 100% ethanol at −20° C. was added drop-wise to the cell suspension for cell fixation. After fixation at 4 C for 30 minutes, fixed cells were spun down. The cell pellets were resuspended in 1 ml of 2 M HCl with 0.5% Triton X-100 (Sigma) and incubated for 30 minutes at room temperature before cells were spun down. One ml of 0.1 M Na2B4O7 at pH 8.5 was used to resuspend the cell pellets and to neutralize the acid for 10 minutes at room temperature. Cells were then pelleted by centrifugation and washed once with PBS containing 0.5% Tween 20 (Sigma) and 1% BSA. […] Cells were then washed twice with PBS, 0.5% Tween 20, 1% BSA, and then resuspended in 0.5 ml of PBS containing 5 μg/ml of propidium iodide (PI) (Sigma) to quantify DNA contents in cells. […]
Jurkat T cells were treated with either anti-CD30 mAb alone, anti-CD3 mAb, alone, or a combination of anti-CD30 and anti-CD3 mAbs. […] Cell cycle distribution was determined by BrdU and PI staining as in FIG. 4.

[3] = test system: Jurkat T cells; assay: Jurkat T cell proliferation, 3H-TdR incorporation, anti-CD30 mAbs with or without secondary cross-linking Ab; format: cell-based, human; details: for inhibition of Jurkat T cell proliferation by immobilized mAb: mAb immobilized onto TC wells, data not shown; for inhibition of thymidine incorporation in Jurkat cells: secondary cross-linking antibody used
Protocol: FIG. 2. […] Proliferation was assessed by a pulse of tritiated thymidine (^3H-TdR) during the last 4 hours of a 72 hour incubation.
FIG. 3. […] Proliferation was assessed by a pulse of ^3H-TdR during the last 4 hours of a 48-hour incubation.
The effect of signaling through CD30 by anti-CD30 on the proliferation of Jurkat T cells was assessed by tritiated thymidine (^3H-TdR) incorporation assays. Jurkat cells were treated with soluble anti-CD30 in graded doses or anti-CD30 cross-linked by a secondary cross-linking antibody (Ab). […] Final ratios of 1:2.5, 1:5, and 1:10 between the primary mAbs and secondary cross-linking antibodies were used. Antibody cocktails were allowed to incubate at room temperature for 15 minutes. Serial dilutions of these antibody cocktails in culture medium were then prepared to achieve the desired final concentrations. One hundred ill of antibody cocktails were then mixed with 100 μl Jurkat cell suspension containing 5000 cells in 96-well tissue culture (TC) plates. Cells were incubated with the antibody cocktails for 44 hours before a 4-hour pulse with 1 μCi of ^3H-TdR. Cells were then harvested onto filters, and incorporated tritiated thymidine was measured by scintillation counting. Thymidine incorporation values obtained from the treated cells were then compared to the untreated control cultures.

[4] = molecular target: CD3 (human); assay: cell-based or functional assay
[5] = test system: T lymphocyte clones 40E10 and 40H7; assay: Apoptosis induction in T cell clones by Annexin V binding and permeability to PI; format: cell-based, human; details: 1 μg/ml of ADC, 4S-hour incubation
Protocol: FIG. 21. […] After 48 hr of incubation, Annexin V binding and permeability of PI were used to assess the extent of apoptosis induction.

[6] = test system: activated naïve T lymphocytes (CD45RO-); assay: Proliferation of activated naïve T lymphocytes, 3H-TdR; format: cell-based, human; details: compared to memory T lymphocytes or T lymphocyte clones
Protocol: As PBMC are made up of different subsets of lymphocytes, the response of one cellular subset toward cAC10 ADCs may easily be masked by other subsets. In order to examine this possibility, total T lymphocytes, naïve and memory T lymphocytes were enriched from PBMC by negative immuno-selection. Briefly, PBMCs were incubated with one of the following antibody cocktails, containing saturating quantities of antibodies, at a final concentration of 20×10^6 cells/ml on ice for 20 minutes. To enrich for total T lymphocytes, the antibody cocktail contained anti-CD 14 (BD PharMingen), anti-CD16 (BD PharMingen), and anti-CD20 (BD PharMingen). To enrich for naïve T lymphocytes (CD45RO^−), the antibody cocktail contained anti-CD14, anti-CD16, anti-CD20, and anti-CD45RO (BD PharMingen). To enrich for memory T lymphocytes (CD45RA^−), the antibody cocktail contained, anti-CD14, anti-CD16, anti-CD20, and anti-CD45RA (BD PharMingen). […]
Activation-induced expression of CD30 on different T cell subsets was then examined. […] After 72 hours of incubation, the expression of CD30 on both CD4 and CDS cells in the different cultures was determined by flow cytometry, also as outlined in Example 6. Expression of CD30 was detected on both CD4 and CDS cells regardless of whether the starting population was total, naïve, or memory T lymphocytes (FIG. 12). […]

[7] = test system: 10 CD30+ T lymphocyte clones; assay: Summary of efficacies of cAC10 ADCs on proliferation of CD30+ T lymphocyte clones; format: cell-based, human; details: FIG. 23 summary
Text: The following trend was observed. […] These clones have been expanded through multiple rounds of T cell receptor and cytokine stimulation, similar to chronically stimulated effector T cells involved in inflammatory and autoimmune responses.

[8] = test system: Jurkat T cells; assay: Growth inhibition of Jurkat T cells by ADC, 3H-TdR pulse; format: cell-based, human; details: 80 hours incubation + 16 hour 3H-TdR pulse
Protocol: FIG. 9. […] Cells were exposed to the ADCs continuously for a total of 96 hr. Proliferation was assessed by a pulse of H-TdR during the last 16 hours of incubation.
Five thousand Jurkat T cells in 100 μl of medium were seeded in 96-well TC plates. […] After 80 hours of incubation, cellular DNA synthesis was assessed by a 16 hour ^3H-TdR pulse.

[9] = molecular target: CD30 (human) (UniProt P28908); assay: cell-based or functional assay
Chain of CD30 (human) (P28908 19-595): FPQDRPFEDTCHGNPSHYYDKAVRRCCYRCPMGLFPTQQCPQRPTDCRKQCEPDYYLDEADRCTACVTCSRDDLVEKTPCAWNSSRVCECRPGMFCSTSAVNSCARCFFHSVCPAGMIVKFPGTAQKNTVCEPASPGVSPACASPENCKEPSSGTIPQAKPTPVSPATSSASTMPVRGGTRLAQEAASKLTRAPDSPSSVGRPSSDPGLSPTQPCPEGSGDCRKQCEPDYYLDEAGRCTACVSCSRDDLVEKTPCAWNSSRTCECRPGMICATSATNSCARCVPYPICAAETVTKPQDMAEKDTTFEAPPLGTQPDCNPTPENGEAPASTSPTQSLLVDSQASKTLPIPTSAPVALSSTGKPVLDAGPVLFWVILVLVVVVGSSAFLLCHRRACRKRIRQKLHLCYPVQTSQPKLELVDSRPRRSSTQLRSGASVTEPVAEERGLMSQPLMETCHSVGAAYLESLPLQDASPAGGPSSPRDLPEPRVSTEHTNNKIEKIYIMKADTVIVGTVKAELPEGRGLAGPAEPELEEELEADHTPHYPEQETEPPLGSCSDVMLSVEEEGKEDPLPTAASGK

Molecule: AC10: murine anti-CD30 mAb; variable regions SEQ ID NO:2 and 10
- earliest time of detectable apoptosis after incubation [1]: 4 h
- DNA fragmentation in Jurkat cells [2]: detectable
- apoptosis induction in Jurkat T cells (BrdU and PI staining) ([2]; single mAb cross-linked by goat anti-mouse IgG Fc, compared to medium control): induced apoptosis
- inhibition of Jurkat T cell proliferation by immobilized mAb [3]: active in inhibiting Jurkat T cell proliferation
- inhibition of thymidine incorporation in Jurkat cells [3]: inhibited thymidine incorporation in Jurkat cell dose-dependently

Molecule: anti-CD3 mAb OKT3 (antibody)
- concentration giving the best synergy with AC10 for apoptosis in Jurkat T cells [4]: 0.2 µg/mL

Molecule: cAC10-fkMMAE: chimeric AC10 anti-CD30 antibody conjugated to MMAE via phenylalanine-lysine linker
- cells either apoptotic or dead [5]: 44-48%

Molecule: cAC10-vcAEFP: chimeric AC10 anti-CD30 antibody conjugated to AEFP via valine-citrulline linker
- sensitivity of naïve T lymphocytes to the ADC [6]: less sensitive; also recorded: most refractory

Molecule: cAC10-vcMMAE: chimeric AC10 anti-CD30 antibody conjugated to MMAE via valine-citrulline linker
- sensitivity of T lymphocyte clones compared to memory T lymphocytes [7]: eight of the 10 T lymphocyte clones were found to be more sensitive
- IC50 [8]: approximately 0.1 μg/ml
- concentrations that significantly inhibited DNA synthesis [8]: higher than 0.001 μg/ml
- sensitivity of naïve T lymphocytes to the ADC [6]: relatively refractory; also recorded: most refractory

Molecule: cAC10: chimeric AC10 (cAC10) anti-CD30 mAb
- concentration with growth inhibitory effect on Jurkat cells ([3]; soluble, unconjugated (FIG. 2)): higher than 1 μg/ml
- concentrations at which Jurkat cell proliferation was not inhibited ([3]; without secondary cross-linking): below 1 μg/ml

Molecule: cIgG-fkMMAE (antibody)
- percent of cells apoptotic or dead (Annexin V / PI), clones 40E10 and 40H7, 48 h with 1 µg/ml ADC (control for cAC10-fkMMAE) [9]: 13% and 31%
- proliferation of activated Th2 clones 40E10 and 40H7 (3H-TdR); concentration needed for inhibition (control ADC) [9]: > 0.1 µg/mL

Molecule: non-binding control IgG (cIgG)-vcMMAE (antibody)
- Jurkat T cell DNA synthesis (3H-TdR), 96 h exposure; concentration needed for growth inhibition (control ADC) [9]: > 0.1 µg/mL
- proliferation of activated Th2 clones 40E10 and 40H7 (3H-TdR); concentration needed for inhibition (control ADC) [9]: > 2 µg/mL

B1: HeFi-1: murine anti-CD30 mAb; variable regions SEQ ID NO:18 and 26 (antibody, listed as Mus musculus, V domains shown)
VH: EVKLVESGGGLVQPGGSLRLSCATSGFTFSDYYMNWVRQPPGKALEWLGFIRNKANGYTTEFSASVMGRFTISRDDSQSILYLQMNTLRAEDSATYYCARDPPYGNPHYYAMDYWGQGTSVTVSS
VL: DIVLTQSPASLAVSLGQRATISCRASKSVSASGYNYMHWYQQKAGQPPKLLIHLASNLESGVPARFSGSGSGTDFTLNIHPVEEEDASTYYCQHSGELPFTFGSGTKLEIK
- earliest time of detectable apoptosis after incubation [1]: 4 h
- DNA fragmentation in Jurkat cells [2]: detectable
- inhibition of Jurkat T cell proliferation by immobilized mAb [3]: active in inhibiting Jurkat T cell proliferation
- inhibition of thymidine incorporation in Jurkat cells [3]: inhibited thymidine incorporation in Jurkat cell dose-dependently
